“And” between values parts separate entries of the source, which are not always exact repeats. Equal entries are not always repeated.
Tests used:
GSH/GSSG = GSH/GSSG ratio (GSH/GSSG-Glo); format: cell-based, human
Procedure: Cellular metabolic states were examined through various assays. To gauge the levels of total intracellular or mitochondrial reactive oxygen species (ROS), cells were stained with CM-H2DCFDA or mitoSOX, respectively. Intracellular H2O2, NADPH, acetyl-CoA, and GSH/GSSG ratios were quantified using commercial assay kits as listed in the Reagents. Intracellular ATP levels were determined utilizing the ATP bioluminescent somatic cell assay and normalized to the total protein concentrations. The de novo synthesized RNA and proteins were assessed in cancer cells using commercial assays following the manufacturer’s protocols. In brief, O-propargyl-puromycin or uridine analog, 5-EU, was applied to stop translation or modify RNA. Polypeptides or modified RNA were measured using fluorescent azide with Ex/Em at 494/521 nm. PDC activity was determined by measuring the reduction of NAD+ to NADH during the conversion of pyruvate into acetyl-CoA.
Supplementary Fig. 2: GSH/GSSG ratio and NADPH level change upon DLAT knockdown and cisplatin treatment. A549cisR (a) and KB-3-1cisR (b) cells were transduced with control or […]
µg/ml; KB-3-1cisR: 5 µg/ml) for 24 h. The GSH/GSSG ratio and relative NADPH levels were measured using GSH/GSSG-Glo Assay and NADP/NADPH-Glo Assay, respectively. Error bars represent SD and are from 4 independent biological replicates for the upper panels of (a,b) and 3 for the lower panels of (a,b). P values were determined by one-way ANOVA.
(§1) (1 picture or pasted object on this page, not shown here)

[1] = test system: A549cisR and KB-3-1cisR cells; assay: Cell cycle distribution (propidium iodide, flow cytometry); format: cell-based, human
Procedure: Cell viability was determined using the CellTiter-Glo Luminescent Cell Viability Assay. […] Subsequently, the cells were cultured in complete medium for an additional 10 days, and the resulting colonies were visualized by staining with crystal violet and quantified using ImageJ software. For cell cycle analysis, cells fixed with 70% ethanol were stained with RNase A (100 µg/mL) and propidium iodide (50 μg/ml) for 30 min at 37 °C, and DNA content distribution was measured using flow cytometry (BD Symphony A3) and analyzed with FlowJo software (v10.9). Apoptotic cell death was assessed via FITC-conjugated annexin V and propidium iodide staining.
1cisR cells were transduced with DLAT-targeting shRNA and treated with sublethal doses of […]
antioxidant N-acetylcysteine (NAC). (a) Western blot analysis of p21 waf1/cip1 expression as a marker of cellular senescence. (b) Western blot analysis of LC3-I/II and p62 as markers of autophagy. (c) Cell cycle distribution was assessed by flow cytometry following propidium iodide staining. (d) Intracellular ROS levels were measured using the H2DCFDA probe. Error bars represent SD and are from 3 independent biological replicates for (c,d). P values were determined by one-way ANOVA.
as §1

KB-3-1 cells = settings: read-out: cisplatin IC50; parental KB-3-1 cells; cited from earlier work
Description: The RNAi library contains 328 shRNA clones, and each gene was targeted by 2 ~ 8 clones (Fig. 1a). Eleven genes, including DLAT, were selected as unexplored lead hits with cisplatin-sensitizing potential and were further evaluated in A549^cisR, H1299, and KB-3-1^cisR, and two acetyltrans ...

PCI-37B cells = assay: Apoptotic cell death (annexin V/PI staining); format: cell-based, human; settings: cisplatin 1 μg/ml, 48 h, n=1-3: biological replicates
[2] = A549cisR cells, pLKO.1, replicate 1
[3] = A549cisR cells, pLKO.1, replicate 2
[4] = A549cisR cells, pLKO.1, replicate 3
[5] = A549cisR cells, shDLAT, replicate 1
[6] = A549cisR cells, shDLAT, replicate 2
[7] = A549cisR cells, shDLAT, replicate 3
[8] = KB-3-1cisR cells, pLKO.1, replicate 1
[9] = KB-3-1cisR cells, pLKO.1, replicate 2
[10] = KB-3-1cisR cells, pLKO.1, replicate 3
[11] = KB-3-1cisR cells, shDLAT, replicate 1
[12] = KB-3-1cisR cells, shDLAT, replicate 2
[13] = KB-3-1cisR cells, shDLAT, replicate 3

SMILES: N.N.[Cl][Pt][Cl] [cisplatin]
- GSH/GSSG (GSH/GSSG; A549cisR cells, pLKO.1, n=2): 20.0066
- GSH/GSSG (GSH/GSSG; A549cisR cells, shDLAT, n=3): 8.945
- GSH/GSSG (GSH/GSSG; KB-3-1cisR cells, shDLAT, n=1): 6.046
- GSH/GSSG (GSH/GSSG; KB-3-1cisR cells, shDLAT, n=2): 6.2227
- Cell cycle, G1 phase [1, 2]: 34.1
- Cell cycle, G2 phase [1, 2]: 36.2
- Cell cycle, S phase [1, 2]: 29.7
- Cell cycle, G1 phase [1, 3]: 33.1
- Cell cycle, G2 phase [1, 3]: 39.3
- Cell cycle, G1 phase [1, 4]: 33.1
- Cell cycle, G2 phase [1, 4]: 38.8
- Cell cycle, S phase [1, 4]: 28.1
- Cell cycle, G1 phase [1, 5]: 39.2
- Cell cycle, G2 phase [1, 5]: 37.2
- Cell cycle, S phase [1, 5]: 23.6
- Cell cycle, G1 phase [1, 6]: 39.5
- Cell cycle, G2 phase [1, 6]: 39.6
- Cell cycle, S phase [1, 6]: 20.9
- Cell cycle, G1 phase [1, 7]: 39.5
- Cell cycle, G2 phase [1, 7]: 38.6
- Cell cycle, S phase [1, 7]: 21.9
- Cell cycle, G1 phase [1, 8]: 23.3
- Cell cycle, G2 phase [1, 8]: 58.9
- Cell cycle, S phase [1, 8]: 17.8
- Cell cycle, G1 phase [1, 9]: 23.7
- Cell cycle, G2 phase [1, 9]: 58.1
- Cell cycle, S phase [1, 9]: 18.2
- Cell cycle, G1 phase [1, 10]: 24.3
- Cell cycle, G2 phase [1, 10]: 57.9
- Cell cycle, S phase [1, 10]: 17.8
- Cell cycle, G1 phase [1, 11]: 18.3
- Cell cycle, G2 phase [1, 11]: 63.6
- Cell cycle, S phase [1, 11]: 18.1
- Cell cycle, G1 phase [1, 12]: 17.6
- Cell cycle, G2 phase [1, 12]: 63.5
- Cell cycle, S phase [1, 12]: 18.9
- Cell cycle, G1 phase [1, 13]: 17
- Cell cycle, S phase [1, 13]: 19.8
- IC50 (KB-3-1 cells): 8.4 µM
- Apoptotic death (PCI-37B cells; PCI-37B pLKO.1): 19.17
- Apoptotic death (PCI-37B cells; PCI-37B shDLAT #1): 38.02
- Apoptotic death (PCI-37B cells; PCI-37B shDLAT #2): 33.33 and 33.41 and 32.54
